{"source": "patent US8431378B2", "about": "“Aminotransferase, gene encoding the same, and methods of using them” (Kaneka Corporation, priority 2005, dated 2013)", "key": {"[1]": {"tested_on": "purified enzyme MTA (aminotransferase)", "test": "Specificity for amino donor, 7-methoxy-2-tetralone as amino acceptor (Example 3)", "type": "biochemical, Pseudomonas fluorescens KNK08-18", "details": "for Relative Activity (%): amino donor varied, 14 mM (racemic 28 mM), acceptor 14 mM 7-methoxy-2-tetralone, 30° C., 1 hour, activity with (S)-α-phenethylamine is 100", "method": "In 20 μL of the purified Enzyme, 380 μL of a 0.1M potassium phosphate buffer containing 14 mM of 7-methoxy-2-tetralone and 14 mM (in case of the racemic amine compound, 28 mM)) of an amine compound of various type was added. After the mixture was reacted at 30° C. for 1 hour, 20 μL of 3N hydrochloric acid was added therein to stop the reaction. The reaction solution thus obtained was analyzed via high-performance liquid chromatography so as to quantitatively analyze 7-methoxy-2-aminotetralin thus obtained. Thereby, the amino group transfer activities with the various amino compounds were analyzed.\n(§1) [Analysis Conditions of High-Performance Liquid Chromatography]\n(§2) • Column: Cosmosil 5C8-MS (Nacalai Tesque Inc.) • Carrier: 30 mM potassium phosphate buffer (pH 2.5)/acetonitrile/methanol=4/1/1 (by volume) • Flow Rate: 0.9 mL/min • Detection: 254 nm"}, "[2]": {"tested_on": "purified enzyme MTA (aminotransferase)", "test": "Specificity for amino donor, pyruvic acid as acceptor, dabsylated alanine quantified (Example 4)", "type": "biochemical, Pseudomonas fluorescens KNK08-18", "details": "for Amino group transfer activity as amino donor (in words): acceptor pyruvic acid; for Relative Activity (%): amino donor varied, 14 mM, acceptor 14 mM pyruvic acid, pH 7.5, 30° C., 1 hour, activity with (S)-α-phenethylamine is 100", "method": "(§3) The amino group transfer activity measurement is carried out as follows: Firstly, 20 μL of a purified enzyme solution having a protein concentration of 0.2 mg/mL is added to 380 μL of a substrate solution having the following composition. After carrying out reaction at 30° C. for 1 hour therein, 20 μL of 3N hydrochloric acid is added therein to stop the reaction. Then, into 20 μL of the resultant reaction mixture, a 0.2M sodium carbonate aqueous solution of 80 μL and an acetone solution of 200 μL containing dabsyl chloride by 3.3 mg/mL are added. Then, the resultant mixture is reacted at 70° C. for 10 min. After 20 μL of acetic acid is added therein with stirring. The reaction mixture thus obtained is analyzed by high-performance liquid chromatography thereby to quantitatively analyze dabsylated alanine.\nas §3, with “purified enzyme obtained in Example 1 was analyzed in terms of its reactivity to typical substrates of ω-amino acid transaminase.” for “amino group transfer activity measurement is carried out as follows:”, “was” for “is”, “[…]” for “380 μL”, “were” for “are”, “alanine. Results of the analysis are shown in Table 2, which the amino group transfer activities are shown as relative activities where the activity with (S)-α-phenethylamine as the amino donor is 100.” for “alanine.”\n(§4) [Substrate Solution Composition]\n(§5) Pyridoxal phosphate 0.02 mM\n(§6) Potassium Phosphate Buffer (pH 7.5) 0.1M\n(§7) [High-Performance Liquid Chromatography Analysis Conditions]\n(§8) Column: Deverosil ODS-HG-3 (Nomura Chemical Co., Ltd.)\n(§9) Carrier: Acetonitrile/0.045M acetate buffer (pH 4.1)=35/65 (by volume)"}, "[3]": {"tested_on": "purified enzyme MTA (aminotransferase)", "test": "Specificity for amino acceptor, (S)-α-phenethylamine as donor (Examples 5 and 6)", "type": "biochemical, Pseudomonas fluorescens KNK08-18", "method": "The purified enzyme obtained in Example 1 was analyzed in terms of substrate specificity regarding amino acceptors. In 20 μL of the purified Enzyme, 380 μL of a 0.1M potassium phosphate buffer containing 14 mM of (S)-α-phenethylamine and 14 mM of a ketone compound of various type was added. After the mixture was reacted at 30° C. for 1 hour, 20 μL of 3N hydrochloric acid was added therein to stop the reaction. Results of the analysis are shown in Table 3, in which the relative activities are shown where the activity with pyruvic acid as the amino acceptor is 100.\nas §1, §2\nThe purified enzyme obtained in Example 1 was analyzed in terms of substrate specificity regarding amino acceptors in the same manner as in Example 5."}, "MTA (present invention)": {"tested_on": "MTA (present invention)", "test": "Substrate specificity, comparison with ω-amino acid transaminase (Example 7), Enzyme A", "type": "biochemical, Pseudomonas fluorescens KNK08-18", "details": "for Reactivity as amino donor (in words): Enzyme A (MTA), receptor pyruvic acid or 2-ketoglutaric acid; for Relative activity, Enzyme A: donor 14 mM, activity with (S)-α-phenethylamine is 100", "method": "The purified enzyme obtained in Example 1 was analyzed in terms of its reactivity to typical substrates of ω-amino acid transaminase. Firstly, 20 μL of a purified enzyme solution having a protein concentration of 0.2 mg/mL was added to 380 μL of a substrate solution having the following composition. After carrying out reaction at 30° C. for 1 hour therein, 20 μL of 3N hydrochloric acid was added therein to stop the reaction. Then, into 20 μL of the resultant reaction mixture, a 0.2M sodium carbonate aqueous solution of 80 μL and an acetone solution of 200 μL containing dabsyl chloride by 3.3 mg/mL were added. Then, the resultant mixture was reacted at 70° C. for 10 min. After 20 μL of acetic acid was added therein with stirring. The reaction mixture thus obtained was analyzed by high-performance liquid chromatography thereby to quantitatively analyze dabsylated alanine or […]. Results of the analysis are shown in Table 5, in which the relative activities are shown where the activity with (S)-α-phenethylamine as the amino donor is 100. In Table 5, the values of activities of ω-amino acid:pyruvic acid transaminase and 4-amino butyric acid: 2-ketoglutaric acid transaminase are from the literatures “Agric. Biol. Chem. 41, 1701-1706 (1977), Arch. Biochem. Biophys. 200, 156-164 (1980)”.\nas §4\nPyruvic acid or 2-ketoglutaric acid 14 mM\nas §5, §6, §7, §8, §9"}, "[4]": {"tested_on": "4-Aminobutylic Acid: 2-Ketoglutaric Acid Transaminase", "details": "amino group receptor 2-ketoglutaric acid; values from the literature; cited from earlier work"}, "[5]": {"details": "Table 4: amino acceptor varied, same manner as in Example 5, donor (S)-α-phenethylamine"}, "[6]": {"details": "Table 3: amino acceptor varied, 14 mM, donor 14 mM (S)-α-phenethylamine, 30° C., 1 hour, activity with pyruvic acid is 100"}}, "note": "Entries after “also recorded” stand apart in the source; their conditions may differ."}
{"smiles": "NCCCCC(N)C(=O)O", "note": "(racemic) [DL-lysine]", "values": [{"measurement": "Relative Activity (%)", "setting": "[1]", "value": 0, "unit": "%"}, {"measurement": "Amino group transfer activity as amino donor (in words)", "setting": "[2]", "value": "no activity; also recorded: substantially inactive"}, {"measurement": "Relative Activity (%)", "setting": "[2]", "value": 0, "unit": "%"}]}
{"smiles": "CCC(C)N", "note": "(racemic) [±2-butylamine]", "values": [{"measurement": "Relative Activity (%)", "setting": "[1]", "value": 48, "unit": "%"}]}
{"smiles": "CCCCCC(C)N", "note": "(racemic) [±2-heptylamine]", "values": [{"measurement": "Relative Activity (%)", "setting": "[1]", "value": 93, "unit": "%"}]}
{"smiles": "CCCC(C)N", "note": "(racemic) [±2-pentylamine]", "values": [{"measurement": "Relative Activity (%)", "setting": "[1]", "value": 60, "unit": "%"}]}
{"smiles": "CC(N)CCc1ccccc1", "note": "(racemic) [±3-amino-1-phenylbutane]", "values": [{"measurement": "Relative Activity (%)", "setting": "[1]", "value": 90, "unit": "%"}]}
{"smiles": "CCCCC(N)CC", "note": "(racemic) [±3-heptylamine]", "values": [{"measurement": "Relative Activity (%)", "setting": "[1]", "value": 19, "unit": "%"}]}
{"smiles": "COc1ccc(CC(C)N)cc1OC", "note": "(racemic) [±3′,4′-dimethoxyamphetamine]", "values": [{"measurement": "Relative Activity (%)", "setting": "[1]", "value": 88, "unit": "%"}]}
{"smiles": "O=C1CCN(Cc2ccccc2)C1", "note": "[1-Benzyl-3-Pyrrolidinone]", "values": [{"measurement": "Relative Activity (%)", "setting": "[3]; [5]", "value": 20, "unit": "%"}]}
{"smiles": "CCCCCC(C)=O", "note": "[2-Heptane]", "values": [{"measurement": "Relative Activity (%)", "setting": "[3]; [5]", "value": 7, "unit": "%"}]}
{"smiles": "CCCC(=O)C(=O)O", "note": "[2-Keto-n-Valeric Acid]", "values": [{"measurement": "Relative Activity (%)", "setting": "[3]; [6]", "value": 0.1, "unit": "%"}]}
{"smiles": "CCC(=O)C(=O)O", "note": "[2-Ketobutyric Acid]", "values": [{"measurement": "Relative Activity (%)", "setting": "[3]; [6]", "value": 2, "unit": "%"}]}
{"smiles": "O=C(O)CCC(=O)C(=O)O", "note": "[2-Ketoglutaric Acid]", "values": [{"measurement": "Relative Activity (%)", "setting": "[3]; [6]", "value": 0, "unit": "%"}, {"measurement": "Activity as amino acceptor (in words)", "setting": "[3]; donor (S)-α-phenethylamine", "value": "no activity"}]}
{"smiles": "O=C1CCc2ccccc2C1", "note": "[2-Tetralone]", "values": [{"measurement": "Relative Activity (%)", "setting": "[3]; [5]", "value": 17, "unit": "%"}]}
{"smiles": "CC(=O)c1cccnc1", "note": "[3-Acetylpyridine]", "values": [{"measurement": "Relative Activity (%)", "setting": "[3]; [5]", "value": 10, "unit": "%"}]}
{"smiles": "CC(=O)c1cccc(O)c1", "note": "[3′-Hydroxyacetophenone]", "values": [{"measurement": "Relative Activity (%)", "setting": "[3]; [5]", "value": 3, "unit": "%"}]}
{"smiles": "COc1cccc(C(C)=O)c1", "note": "[3′-Methoxyacetophenone]", "values": [{"measurement": "Relative Activity (%)", "setting": "[3]; [5]", "value": 10, "unit": "%"}]}
{"smiles": "CC(=O)c1cccc(C(F)(F)F)c1", "note": "[3′-Trifluoromethylacetophenone]", "values": [{"measurement": "Relative Activity (%)", "setting": "[3]; [5]", "value": 40, "unit": "%"}]}
{"smiles": "NCCCC(=O)O", "note": "[4-Aminobutyric Acid]", "values": [{"measurement": "Reactivity as amino donor (in words)", "setting": "MTA (present invention)", "value": "not reactive"}, {"measurement": "Relative activity, Enzyme A", "setting": "MTA (present invention); amino group receptor 2-ketoglutaric acid 14 mM", "value": 0}, {"measurement": "Relative activity, Enzyme C", "setting": "[4]", "value": 100}]}
{"smiles": "CC(=O)c1ccc(Cl)cc1", "note": "[4′-Chloroacetophenone]", "values": [{"measurement": "Relative Activity (%)", "setting": "[3]; [5]", "value": 30, "unit": "%"}]}
{"smiles": "COc1ccc2c(c1)CC(=O)CC2", "note": "[7-Methoxy-2-Tetralone]", "values": [{"measurement": "Relative Activity (%)", "setting": "[3]; [5]", "value": 10, "unit": "%"}]}
{"smiles": "C[C@H](N)c1ccccc1", "note": "[(S)-α-phenethylamine, reference compound]", "values": [{"measurement": "Amino group transfer activity as amino donor (in words)", "setting": "[1]; acceptor 7-methoxy-2-tetralone", "value": "especially high activity"}, {"measurement": "Relative Activity (%)", "setting": "[1]", "value": 100, "unit": "%"}, {"measurement": "Amino group transfer activity as amino donor (in words)", "setting": "[2]", "value": "active"}, {"measurement": "Relative Activity (%)", "setting": "[2]", "value": 100, "unit": "%"}, {"measurement": "Reactivity as amino donor (in words)", "setting": "MTA (present invention)", "value": "highly active"}, {"measurement": "Relative activity, Enzyme A", "setting": "MTA (present invention); amino group receptor pyruvic acid 14 mM", "value": 100}]}
